In US12662476B2, “Herbicidal thiazole compounds” (SYNGENTA CROP PROTECTION AG, priority 2019, dated 2026):

Assays:
Assay type in all cases: in vivo
[1] = test system: Amaranthus retoflexus (AMARE); assay: Post-emergence herbicidal glasshouse test; conditions: sprayed after 8 days cultivation, 250 g/ha, evaluated after 13 days, five-point scale
Method: (§1) Seeds of a variety of test species are sown in standard soil in pots Amaranthus retoflexus (AMARE), Echinochloa crus-galli (ECHCG), Setaria faberi (SETFA)). After cultivation for one day (pre-emergence) or after 8 days cultivation (post-emergence) under controlled conditions in a glasshouse (at 24/16° C., day/night; 14 hours light; 65% humidity), the plants are sprayed with an aqueous spray solution derived from the formulation of the technical active ingredient in acetone/water (50:50) solution containing 0.5% Tween™ 20 (polyoxyethylene sorbitan monolaurate, CAS RN 9005-64-5). Compounds are applied at 250 g/ha unless otherwise stated. The test plants are then grown in a glasshouse under controlled conditions in a glasshouse (at 24/16° C., day/night; 14 hours light; 65% humidity) and watered twice daily. After 13 days for pre- and post-emergence, the test is evaluated for the percentage damage caused to the plant. The biological activities are shown in the following table on a five-point scale (5=81-100%; 4=61-80%; 3=41-60%; 2=21-40%; 1=0-20%).

[2] = test system: Echinochloa crus-galli (ECHCG); assay: Post-emergence herbicidal glasshouse test; conditions: sprayed after 8 days cultivation, 250 g/ha, evaluated after 13 days, five-point scale
Method: as §1

Setaria faberi (SETFA) [3] = assay: Post-emergence herbicidal glasshouse test; conditions: sprayed after 8 days cultivation, 250 g/ha, evaluated after 13 days, five-point scale
Method: as §1

[4] = test system: Amaranthus retoflexus (AMARE); assay: Pre-emergence herbicidal glasshouse test; conditions: sprayed after one day cultivation, 250 g/ha, evaluated after 13 days, five-point scale
Method: as §1

[5] = test system: Echinochloa crus-galli (ECHCG); assay: Pre-emergence herbicidal glasshouse test; conditions: sprayed after one day cultivation, 250 g/ha, evaluated after 13 days, five-point scale
Method: as §1

Setaria faberi (SETFA) [6] = assay: Pre-emergence herbicidal glasshouse test; conditions: sprayed after one day cultivation, 250 g/ha, evaluated after 13 days, five-point scale
Method: as §1

Row | SMILES | percentage damage caused to the plant, AMARE [1] | percentage damage caused to the plant, ECHCG [2] | percentage damage caused to the plant, SETFA (Setaria faberi (SETFA) [3]) | percentage damage caused to the plant, AMARE [4] | percentage damage caused to the plant, ECHCG [5] | percentage damage caused to the plant, SETFA (Setaria faberi (SETFA) [6])
1 | Fc1cccc(Oc2ncc(Cl)s2)c1-c1cc(C(F)F)no1 [Compound 1.006] | 5 (5=81-100%) | 4 (4=61-80%) | 5 (5=81-100%) | 5 (5=81-100%) | 5 (5=81-100%) | 5 (5=81-100%)
2 | Fc1cccc(Oc2nc(Cl)cs2)c1-c1cc(C(F)F)no1 [Compound 1.008] | 4 (4=61-80%) | 2 (2=21-40%) | 1 (1=0-20%) | 3 (3=41-60%) | 1 (1=0-20%) | 3 (3=41-60%)
3 | Fc1cccc(Oc2ncc(Br)s2)c1-c1cc(C(F)F)no1 [Compound 1.004, 5-[2-(5-bromothiazol-2-yl)oxy-6-fluoro-phenyl]-3-(difluoromethyl)isoxazole] | 5 (5=81-100%) | 5 (5=81-100%) | 5 (5=81-100%) | 5 (5=81-100%) | 4 (4=61-80%) | 5 (5=81-100%)
4 | Cc1cccc(-c2cc(C(F)F)no2)c1Oc1ncc(Cl)s1 [Compound 1.011] | 2 (2=21-40%) | 3 (3=41-60%) | 3 (3=41-60%) | 4 (4=61-80%) | 4 (4=61-80%) | 1 (1=0-20%)
5 | FC(F)c1cc(-c2c(Cl)cccc2Oc2ncc(C(F)F)s2)on1 [Compound 1.019] | 4 (4=61-80%) | 4 (4=61-80%) | 5 (5=81-100%) | 2 (2=21-40%) | 5 (5=81-100%) | 5 (5=81-100%)
6 | FC(F)c1cc(-c2ccccc2Oc2ncc(C(F)F)s2)on1 [Compound 1.021] | 4 (4=61-80%) | 1 (1=0-20%) | 3 (3=41-60%) | 3 (3=41-60%) | 4 (4=61-80%) | 4 (4=61-80%)
7 | Fc1cccc(-c2cc(C(F)F)no2)c1Oc1ncc(Cl)s1 [Compound 1.010] | 4 (4=61-80%) | 3 (3=41-60%) | 4 (4=61-80%) | 5 (5=81-100%) | 4 (4=61-80%) | 4 (4=61-80%)
8 | FC(F)c1cc(-c2ccccc2Oc2ncc(Cl)s2)on1 [Compound 1.026] | 4 (4=61-80%) | 4 (4=61-80%) | 4 (4=61-80%) | 4 (4=61-80%) | 4 (4=61-80%) | 4 (4=61-80%)
9 | FC(F)c1cc(-c2c(Br)cccc2Oc2ncc(Cl)s2)on1 [Compound 1.023] | 5 (5=81-100%) | 5 (5=81-100%) | 5 (5=81-100%) | 5 (5=81-100%) | 5 (5=81-100%) | 5 (5=81-100%)
